Target: T1, Human immunodeficiency virus type 1 integrase (Human immunodeficiency virus 1, UniProt Q7ZJM1)
Test: Inhibitory concentration against 3'-processing by HIV -1 Integrase

T1 sequence (Q7ZJM1 whole entry): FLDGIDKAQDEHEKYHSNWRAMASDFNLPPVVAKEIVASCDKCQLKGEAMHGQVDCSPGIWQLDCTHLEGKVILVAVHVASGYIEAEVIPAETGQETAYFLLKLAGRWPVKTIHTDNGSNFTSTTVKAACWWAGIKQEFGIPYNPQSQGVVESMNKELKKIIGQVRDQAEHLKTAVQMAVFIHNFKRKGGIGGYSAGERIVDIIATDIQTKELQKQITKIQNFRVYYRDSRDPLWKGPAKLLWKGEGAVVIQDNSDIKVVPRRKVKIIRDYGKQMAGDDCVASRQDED

Row | Compound | IC50
1 | O=C1OC[C@H](Cc2ccc(O)c(O)c2)[C@H]1Cc1ccc(O)c(O)c1 | 21.4 µM

Target: Human immunodeficiency virus type 1 integrase (Human immunodeficiency virus 1) (UniProt Q7ZJM1)
Test: Inhibitory activity against 3'-processing by HIV-1 Integrase at 100 uM

Chain of Human immunodeficiency virus type 1 integrase (Human immunodeficiency virus 1) (Q7ZJM1 as listed by the source): as the sequence (Q7ZJM1 whole entry) above

Row | Compound | inhibition
2 | COc1ccc(C[C@H]2COC(=O)[C@@H]2Cc2cc(O)c(O)c(O)c2)cc1OC | < 5%
3 | COc1cc([C@@H]2c3cc4c(c(O)c3C[C@H]3COC(=O)[C@H]32)OCO4)cc(OC)c1OC | < 5%
4 | COc1cc([C@@H]2c3cc4c(cc3C(O)[C@H]3COC(=O)[C@H]23)OCO4)cc(O)c1O (stereo not given in full) | < 5%
5 | COc1cc([C@@H]2c3cc4c(cc3[C@H](O)[C@H]3COC(=O)[C@@H]23)OCO4)cc(OC)c1O | < 5%
6 | COc1cc([C@@H]2c3cc4c(c(O)c3C[C@H]3COC(=O)[C@@H]32)OCO4)cc(OC)c1OC | < 5%
7 | COc1ccc(C[C@H]2COC[C@@H]2Cc2ccc(O)c(O)c2)cc1OC | < 5%
8 | COc1cc(C[C@@H](CO)[C@H](CO)Cc2ccc(OC)c(OC)c2)ccc1O | < 5%
9 | COc1cc([C@@H]2c3cc4c(cc3[C@H](O)[C@H]3COC(=O)[C@H]23)OCO4)cc(OC)c1O | < 5%
10 | COc1cc(C[C@H]2COC(=O)[C@@H]2Cc2ccc(O)c(OC)c2)ccc1O | < 5%
11 | COc1cc(C[C@H]2COC[C@@H]2Cc2ccc(O)c(OC)c2)ccc1O | < 5%
12 | COc1cc(C[C@@H](CO)[C@H](CO)Cc2ccc(O)c(OC)c2)ccc1O | < 5%
13 | COc1ccc(C[C@H]2COC(=O)[C@@H]2Cc2ccc(O)cc2)cc1OC | < 5%
14 | COc1cc(C[C@H]2C(=O)OC[C@@H]2Cc2ccc(OC)c(OC)c2)ccc1O | < 5%
15 | COc1ccc(C[C@H]2CCC(=O)[C@@H]2Cc2ccc(O)c(O)c2)cc1OC | < 5%
16 | COc1ccc(C[C@@H](CO)[C@@H](Cc2ccc(O)c(O)c2)C(=O)NCc2ccccc2)cc1OC | < 5%
17 | O=C1OC[C@H](Cc2ccc3c(c2)OCO3)[C@H]1Cc1cccc(O)c1 | < 5%
18 | COc1ccc(C[C@H]2COC(=O)[C@@H]2Cc2ccc(O)c(O)c2)cc1OC | 37%
19 | COc1cc(C[C@H]2C(=O)CC[C@@H]2Cc2ccc(OC)c(OC)c2)ccc1O | < 5%
20 | COc1cc(C[C@H]2COC[C@@H]2Cc2ccc(OC)c(OC)c2)ccc1O | < 5%
21 | O=C1OC[C@H](Cc2ccc3c(c2)OCO3)[C@H]1Cc1ccccc1 | < 5%
22 | COc1cc(C[C@H]2C(=O)OC[C@@H]2Cc2ccc(O)c(O)c2)ccc1O | < 5%
23 | COc1cc([C@@H]2c3cc4c(c(O)c3C[C@H]3COC(=O)[C@H]32)OCO4)cc(OC)c1O | < 5%
24 | COc1ccc(C[C@@H](CO)[C@H](CO)Cc2ccc(O)c(O)c2)cc1OC | < 5%
25 | O=C1OC[C@H](Cc2ccc(O)c(O)c2)[C@H]1Cc1ccc(O)c(O)c1 | 92%
26 | COc1cc(C[C@@H](C(=O)NCc2ccccc2)[C@H](CO)Cc2ccc(OC)c(OC)c2)ccc1O | < 5%
27 | O=C1OC[C@H](Cc2ccc3c(c2)OCO3)[C@H]1Cc1ccc(O)cc1 | < 5%
28 | COc1ccc(C[C@H]2COC(=O)[C@@H]2Cc2cccc(O)c2)cc1OC | < 5%
29 | COc1ccc(C[C@H]2COC(=O)[C@@H]2Cc2ccccc2)cc1OC | < 5%
30 | COc1cc([C@@H]2c3cc4c(c(O)c3C[C@H]3COC(=O)[C@@H]32)OCO4)cc(OC)c1O | < 5%

Target: Human immunodeficiency virus type 1 integrase (Human immunodeficiency virus 1) (UniProt Q7ZJM1)
Test: Inhibitory activity against strand transfer by HIV-1 Integrase at 100 uM

Row | Compound | inhibition
31 | COc1ccc(C[C@H]2COC(=O)[C@@H]2Cc2cc(O)c(O)c(O)c2)cc1OC | < 5%
32 | COc1cc([C@@H]2c3cc4c(c(O)c3C[C@H]3COC(=O)[C@H]32)OCO4)cc(OC)c1OC | < 5%
33 | COc1cc([C@@H]2c3cc4c(cc3C(O)[C@H]3COC(=O)[C@H]23)OCO4)cc(O)c1O (stereo not given in full) | < 5%
34 | COc1cc([C@@H]2c3cc4c(cc3[C@H](O)[C@H]3COC(=O)[C@@H]23)OCO4)cc(OC)c1O | < 5%
35 | COc1cc([C@@H]2c3cc4c(c(O)c3C[C@H]3COC(=O)[C@@H]32)OCO4)cc(OC)c1OC | < 5%
36 | COc1ccc(C[C@H]2COC[C@@H]2Cc2ccc(O)c(O)c2)cc1OC | < 5%
37 | COc1cc(C[C@@H](CO)[C@H](CO)Cc2ccc(OC)c(OC)c2)ccc1O | < 5%
38 | COc1cc([C@@H]2c3cc4c(cc3[C@H](O)[C@H]3COC(=O)[C@H]23)OCO4)cc(OC)c1O | < 5%
39 | COc1cc(C[C@H]2COC(=O)[C@@H]2Cc2ccc(O)c(OC)c2)ccc1O | < 5%
40 | COc1cc(C[C@H]2COC[C@@H]2Cc2ccc(O)c(OC)c2)ccc1O | < 5%
41 | COc1cc(C[C@@H](CO)[C@H](CO)Cc2ccc(O)c(OC)c2)ccc1O | < 5%
42 | COc1ccc(C[C@H]2COC(=O)[C@@H]2Cc2ccc(O)cc2)cc1OC | < 5%
43 | COc1cc(C[C@H]2C(=O)OC[C@@H]2Cc2ccc(OC)c(OC)c2)ccc1O | < 5%
44 | COc1ccc(C[C@H]2CCC(=O)[C@@H]2Cc2ccc(O)c(O)c2)cc1OC | < 5%
45 | COc1ccc(C[C@@H](CO)[C@@H](Cc2ccc(O)c(O)c2)C(=O)NCc2ccccc2)cc1OC | < 5%
46 | O=C1OC[C@H](Cc2ccc3c(c2)OCO3)[C@H]1Cc1cccc(O)c1 | < 5%
47 | COc1ccc(C[C@H]2COC(=O)[C@@H]2Cc2ccc(O)c(O)c2)cc1OC | 52%
48 | COc1cc(C[C@H]2C(=O)CC[C@@H]2Cc2ccc(OC)c(OC)c2)ccc1O | < 5%
49 | COc1cc(C[C@H]2COC[C@@H]2Cc2ccc(OC)c(OC)c2)ccc1O | < 5%
50 | O=C1OC[C@H](Cc2ccc3c(c2)OCO3)[C@H]1Cc1ccccc1 | < 5%
51 | COc1cc(C[C@H]2C(=O)OC[C@@H]2Cc2ccc(O)c(O)c2)ccc1O | 41%
52 | COc1cc([C@@H]2c3cc4c(c(O)c3C[C@H]3COC(=O)[C@H]32)OCO4)cc(OC)c1O | < 5%
53 | COc1ccc(C[C@@H](CO)[C@H](CO)Cc2ccc(O)c(O)c2)cc1OC | < 5%
54 | O=C1OC[C@H](Cc2ccc(O)c(O)c2)[C@H]1Cc1ccc(O)c(O)c1 | 100%
55 | COc1cc(C[C@@H](C(=O)NCc2ccccc2)[C@H](CO)Cc2ccc(OC)c(OC)c2)ccc1O | < 5%
56 | O=C1OC[C@H](Cc2ccc3c(c2)OCO3)[C@H]1Cc1ccc(O)cc1 | < 5%
57 | COc1ccc(C[C@H]2COC(=O)[C@@H]2Cc2cccc(O)c2)cc1OC | < 5%
58 | COc1ccc(C[C@H]2COC(=O)[C@@H]2Cc2ccccc2)cc1OC | < 5%
59 | COc1cc([C@@H]2c3cc4c(c(O)c3C[C@H]3COC(=O)[C@@H]32)OCO4)cc(OC)c1O | < 5%

Target: T1, Human immunodeficiency virus type 1 integrase
Test: Inhibitory concentration against Strand transfer by HIV -1 Integrase

Row | Compound | IC50
60 | O=C1OC[C@H](Cc2ccc(O)c(O)c2)[C@H]1Cc1ccc(O)c(O)c1 | 5.4 µM
